Measured values reported in patent US10874743B2, “IRAK degraders and uses thereof” (Kymera Therapeutics, Inc., priority 2017, dated 2020).
Where two headings read alike, the source gives them in different places.

Experiment: Pharmacokinetics in CD-1 mice (plasma concentrations, PK parameters)
Type: in vivo
Details: CD-1, mouse, plasma; for concentration at 5 min / concentration at 0.5 h / concentration at 1 h / concentration at 2 h / concentration at 4 h / concentration at 24 h: read-out: Concentration; for AUC(0-inf): read-out: AUCInf; for AUC(0-t): read-out: AUClast; for C0: read-out: C0; for MRT inf: read-out: MRTInf_obs; for Cmax: read-out: Cmax; for Tmax: read-out: Tmax
Procedure: Pharmacokinetics for I-127, I-172 and I-210 were determined in Sprague Dawley rats or CD-1 mice by dosing intravenous (IV), subcutaneous (SC) or per oral (PO) using facility SOPs and sampling plasma at required time points. Species, formulation, route of administration and time points samples are listed below for each compound.
Compounds were extracted from plasma, injected on reverse phase HPLC, eluted with a gradient from 5% to 95% acetonitrile in water and quantified by mass spectrometry with internal standard. Data are expressed in ng compound per mL of plasma.

[1] = iv, 2 mg/kg, mouse (CD1) iv 2 mg/kg, Mean
[2] = iv, 2 mg/kg, mouse (CD1) iv 2 mg/kg, individual Mouse 1-3
[3] = po, 30 mg/kg, mouse (CD1) po 30 mg/kg, Mean
[4] = po, 30 mg/kg, mouse (CD1) po 30 mg/kg, individual Mouse 4-6
[5] = sc, 30 mg/kg, mouse (CD1) sc 30 mg/kg, Mean
[6] = sc, 30 mg/kg, mouse (CD1) sc 30 mg/kg, individual Mouse 7-9

- concentration at 5 min [1]: 589 ng/mL
- concentration at 5 min [2]: 579 ng/mL
- concentration at 0.25 h [1]: 390 ng/mL
- concentration at 0.25 h [2]: 364 ng/mL
- concentration at 0.5 h [1]: 283 ng/mL
- concentration at 0.5 h [2]: 306 ng/mL
- concentration at 1 h [1]: 193 ng/mL
- concentration at 1 h [2]: 220 ng/mL
- concentration at 2 h [1]: 90.8 ng/mL
- concentration at 2 h [2]: 89.3 ng/mL
- concentration at 4 h [1]: 26.1 ng/mL
- concentration at 4 h [2]: 32.5 ng/mL
- concentration at 8 h [1]: 5.19 ng/mL
- concentration at 8 h [2]: 5.72 ng/mL
- half-life [1]: 1.49 h
- AUC(0-inf) [1]: 672 ng·h/mL
- AUC(0-t) [1]: 661 ng·h/mL
- C0 [1]: 726 ng/mL
- MRT inf [1]: 1.5 h
- half-life [2]: 1.52 h
- AUC(0-inf) [2]: 714 ng·h/mL
- AUC(0-t) [2]: 701 ng·h/mL
- C0 [2]: 730 ng/mL
- MRT inf [2]: 1.58 h
- concentration at 0.25 h [3]: 30.8 ng/mL
- concentration at 0.5 h [3]: 55 ng/mL
- concentration at 1 h [3]: 72 ng/mL
- concentration at 2 h [3]: 127 ng/mL
- concentration at 2 h [4]: 177 ng/mL
- concentration at 4 h [3]: 120 ng/mL
- concentration at 4 h [4]: 92.5 ng/mL
- concentration at 8 h [3]: 22.8 ng/mL
- half-life [3]: 2.27 h
- AUC(0-inf) [3]: 753 ng·h/mL
- AUC(0-t) [3]: 676 ng·h/mL
- Cmax [3]: 148 ng/mL
- MRT inf [3]: 4.14 h
- Tmax [3]: 3.33 h
- half-life [4]: 2.59 h
- AUC(0-inf) [4]: 917 ng·h/mL
- AUC(0-t) [4]: 786 ng·h/mL
- Cmax [4]: 177 ng/mL
- MRT inf [4]: 4.22 h
- Tmax [4]: 2 h
- concentration at 0.25 h [5]: 79.3 ng/mL
- concentration at 0.25 h [6]: 74.8 ng/mL
- concentration at 0.5 h [5]: 85 ng/mL
- concentration at 0.5 h [6]: 88.8 ng/mL
- concentration at 1 h [5]: 97 ng/mL
- concentration at 1 h [6]: 107 ng/mL
- concentration at 2 h [5]: 95 ng/mL
- concentration at 2 h [6]: 90 ng/mL
- concentration at 4 h [5]: 98 ng/mL
- concentration at 4 h [6]: 95.9 ng/mL
- concentration at 8 h [5]: 43.5 ng/mL
- concentration at 8 h [6]: 39.6 ng/mL
- concentration at 24 h [5]: 2.85 ng/mL
- concentration at 24 h [6]: 3.62 ng/mL
- half-life [5]: 3.96 h
- AUC(0-inf) [5]: 1040 ng·h/mL
- AUC(0-t) [5]: 1020 ng·h/mL
- Cmax [5]: 109 ng/mL
- MRT inf [5]: 5.87 h
SMILES: O=C1CCC(N2C(=O)c3cccc(NCCOCCOCCNCc4ccc(-n5cc(NC(=O)c6coc(-c7ccnc(NCC8CC8)c7)n6)c(C(F)F)n5)cc4)c3C2=O)C(=O)N1 (stereo not drawn) [I-210, 2-[2-(Cyclopropylmethylamino)-4-pyridyl]-N-[3-(difluoromethyl)-1-[4-[[2-[2-[2-[[2-(2,6-dioxo-3-piperidyl)-1,3-dioxoisoindolin-4-yl]amino]ethoxy]ethoxy]ethylamino]methyl]phenyl]pyrazol-4-yl]oxazole-4-carboxamide]
